Measurements from patent US20240279233A1, “MACROCYCLIC TAK1 INHIBITORS” (Aqilion AB, priority 2021, published 2024).
Where two headings read alike, the source gives them in different places.

Molecular target: human recombinant TAK1-TAB1 Kinase (TAK1 (1-303) and TAB1 (437-end)) (Homo sapiens (Human), UniProt O43318)
Assay: TAK1 biochemical ADP-Glo kinase assay
Settings: MBP substrate
Method: The usefulness of the example compounds of the invention as TAK1 inhibitors was evaluated in a biochemical ADP-Glo kinase assay. Assay kits from Promega Corporation V4089 were used according to manufacturer's instructions and adapted as outlined here. ADP-Glo Kinase Assay kit contains ADP-Glo Reagent, Kinase Detection Reagent, kinase detection buffer, ATP, and ADP. The Kinase Enzyme Systems include human recombinant TAK1-TAB1 Kinase (TAK1 (1-303) and TAB1 (437-end)), Native Swine Myelin Basic Protein (MBP) substrate, 5×kinase reaction buffer, and DTT.
Test compounds were prepared in 1:5 serial dilutions at 8 concentrations in DMSO from 10 mM stock solutions. An additional 20-fold dilution in 1× kinase reaction buffer (see below) was performed, yielding a final dilution series in kinase buffer with 5% DMSO (final concentration in assay from 20 μM to 0.26 nM, 1% DMSO). As controls, Takinib was prepared as positive control (3 μM final in assay), and DMSO without inhibitor served as negative control, at a final assay concentration of DMSO of 1%.
One μl of compound solution in 5% DMSO was added to each well in a 384 well microtiter plate (OptiPlate #6007290). Two μl TAK1-TAB1 (7.5 ng/μl) in lxkinase reaction buffer ([…] Tris base pH 7.5, 20 mM MgCl2, 50 μM DTT, 0.1 mg/ml BSA) was added and pre-incubated 10 min before adding 2 μl of a mixture of MBP substrate and ATP (0.25 μg/μL MBP/25 μM ATP or 0.25 μg/μL MBP/2.5 mM ATP) in 1× kinase reaction buffer (as above). The plate was subsequently incubated at room temperature for 1 hour. Then 5 μl ADP-Glo™ reagent from ADP-Glo™ kit (as above) was added and incubated for 40 min to stop the reaction and consume remaining ATP. Ten μl kinase detection substrate (dissolved in kinase detection buffer, both from ADP-Glo™ kit as above) was then added to convert ADP to ATP and detect ATP with luciferase/luciferin. The plate was incubated for 30 minutes at room temperature in dark before reading luminescence on an Envision (PerkinElmer) reader.
IC50 values of compounds of the invention were determined by the non-linear regression analysis of dose response curves.

[1] = 10 μM ATP, read-out: TAK1 Mean IC50 (nM) @ 10 μM ATP
[2] = 1 mM ATP, read-out: TAK1 Mean IC50 (nM) @ 1 mM ATP

human recombinant TAK1-TAB1 Kinase (TAK1 (1-303) and TAB1 (437-end)), sequence (O43318 other isoform, or with tags, fused parts or gaps): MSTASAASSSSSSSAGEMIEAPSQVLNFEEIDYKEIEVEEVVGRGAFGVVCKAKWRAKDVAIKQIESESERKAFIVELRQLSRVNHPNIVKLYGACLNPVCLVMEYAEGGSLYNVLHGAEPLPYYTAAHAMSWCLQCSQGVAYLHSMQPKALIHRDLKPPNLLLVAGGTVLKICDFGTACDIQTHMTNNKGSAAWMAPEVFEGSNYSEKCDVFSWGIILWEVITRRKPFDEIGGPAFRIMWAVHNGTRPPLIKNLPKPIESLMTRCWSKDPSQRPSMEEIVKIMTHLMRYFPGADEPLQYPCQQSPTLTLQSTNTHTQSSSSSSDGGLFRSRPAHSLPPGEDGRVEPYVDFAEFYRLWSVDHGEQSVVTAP

Row | SMILES | IC50 [1] [nM] | IC50 [2] [nM]
1 | CC1CCCCNC(=O)c2cccc(c2)C(=O)Nc2nc3cccc(C(=O)N(C)C)c3n21 (single isomer, unassigned) [Example 31, (E)-N,N,11-trimethyl-3,5-dioxo-1^2,1^3-dihydro-1^1H-2,6-diaza-1(2,1)-benzo[d]imidazola-4(1,3)-benzenacycloundecaphane-1^7-carboxamide] | 3 | 14
2 | CC1CCCCNC(=O)c2cccc(c2)C(=O)Nc2nc3cccc(-c4ccc[nH]c4=O)c3n21 (single isomer, unassigned) [Example 35, (E)-11-methyl-1^7-(2-oxo-1,2-dihydropyridin-3-yl)-1^2,1^3-dihydro-1^1H-2,6-diaza-1(2,1)-benzo[d]imidazola-4(1,3)-benzenacycloundecaphane-3,5-dione] | 5 | –
3 | CC1CCCCNC(=O)c2cccc(c2)C(=O)Nc2nc3cccc(-c4ccc[nH]c4=O)c3n21 (single isomer, unassigned) [Example 36, (E)-11-methyl-1^7-(2-oxo-1,2-dihydropyridin-3-yl)-1^2,1^3-dihydro-1^1H-2,6-diaza-1(2,1)-benzo[d]imidazola-4(1,3)-benzenacycloundecaphane-3,5-dione] | 6 | –
4 | C[C@H]1CCCCNC(=O)c2cccc(c2)C(=O)Nc2nc3ccc(Cl)c(C(=O)N(C)C)c3n21 (single isomer, unassigned) [Example 53] | 258 | –
5 | CC1CCCCNC(=O)c2cccc(c2)C(=O)/N=C2\Nc3cccc(C4CCCNC4=O)c3N21 (single isomer, unassigned) [Example 58, (E)-11-methyl-1^7-(2-oxopiperidin-3-yl)-1^2,1^3-dihydro-1^1H-2,6-diaza-1(2,1)-benzo[d]imidazola-4(1,3)-benzenacycloundecaphane-3,5-dione] | 4 | –
6 | CC1CCCCNC(=O)c2cccc(c2)C(=O)/N=C2\Nc3cccc(C4CCCNC4=O)c3N21 (single isomer, unassigned) [Example 59, (E)-11-methyl-1^7-(2-oxopiperidin-3-yl)-1^2,1^3-dihydro-1^1H-2,6-diaza-1(2,1)-benzo[d]imidazola-4(1,3)-benzenacycloundecaphane-3,5-dione] | 4 | –
7 | CC1CCCCNC(=O)c2cccc(c2)C(=O)/N=C2\Nc3cccc(C4CCCNC4=O)c3N21 (single isomer, unassigned) [Example 60, (E)-11-methyl-1^7-(2-oxopiperidin-3-yl)-1^2,1^3-dihydro-1^1H-2,6-diaza-1(2,1)-benzo[d]imidazola-4(1,3)-benzenacycloundecaphane-3,5-dione] | 5 | –
8 | CC1CCCCNC(=O)c2cccc(c2)C(=O)/N=C2\Nc3cccc(C4CCCNC4=O)c3N21 (single isomer, unassigned) [Example 61, (E)-11-methyl-1^7-(2-oxopiperidin-3-yl)-1^2,1^3-dihydro-1^1H-2,6-diaza-1(2,1)-benzo[d]imidazola-4(1,3)-benzenacycloundecaphane-3,5-dione] | 4 | –
9 | CC1CCCCNC(=O)c2cccc(c2)C(=O)/N=C2\Nc3cccc(-c4cc[nH]c(=O)c4)c3N21 (single isomer, unassigned) [Example 62, (E)-11-methyl-1^7-(2-oxo-1,2-dihydropyridin-4-yl)-1^2,1^3-dihydro-1^1H-2,6-diaza-1(2,1)-benzo[d]imidazola-4(1,3)-benzenacycloundecaphane-3,5-dione] | 12 | –
10 | CC1CCCCNC(=O)c2cccc(c2)C(=O)/N=C2\Nc3cccc(-c4cc[nH]c(=O)c4)c3N21 (single isomer, unassigned) [Example 63, (E)-11-methyl-1^7-(2-oxo-1,2-dihydropyridin-4-yl)-1^2,1^3-dihydro-1^1H-2,6-diaza-1(2,1)-benzo[d]imidazola-4(1,3)-benzenacycloundecaphane-3,5-dione] | 8 | –
11 | CCC1CCCCNC(=O)c2cccc(c2)C(=O)Nc2nc3cccc(C(=O)N(C)C)c3n21 (single isomer, unassigned) [Example 67, (E)-11-ethyl-N,N-dimethyl-3,5-dioxo-1^2,1^3-dihydro-1^1H-2,6-diaza-1(2,1)-benzo[d]imidazola-4(1,3)-benzenacycloundecaphane-1^7-carboxamide] | 5 | –
12 | CCC1CCCCNC(=O)c2cccc(c2)C(=O)Nc2nc3cccc(C(=O)N(C)C)c3n21 (single isomer, unassigned) [Example 68, (E)-11-ethyl-N,N-dimethyl-3,5-dioxo-1^2,1^3-dihydro-1^1H-2,6-diaza-1(2,1)-benzo[d]imidazola-4(1,3)-benzenacycloundecaphane-1^7-carboxamide] | 4 | –
13 | CC1CCCCNC(=O)c2cccc(c2)C(=O)/N=C2\Nc3cccc(C(=O)N(C)CCF)c3N21 (single isomer, unassigned) [Example 71, (E)-N-(2-fluoroethyl)-N,11-dimethyl-3,5-dioxo-1^2,1^3-dihydro-1^1H-2,6-diaza-1(2,1)-benzo[d]imidazola-4(1,3)-benzenacycloundecaphane-1^7-carboxamide] | 6 | 27
14 | CC1CCCCNC(=O)c2cccc(c2)C(=O)/N=C2\Nc3cccc(C(=O)N(C)CC(F)F)c3N21 (single isomer, unassigned) [Example 72, (E)-N-(2,2-difluoroethyl)-N,11-dimethyl-3,5-dioxo-1^2,1^3-dihydro-1^1H-2,6-diaza-1(2,1)-benzo[d]imidazola-4(1,3)-benzenacycloundecaphane-1^7-carboxamide] | 7 | –
15 | CC1CCCCNC(=O)c2cccc(c2)C(=O)/N=C2\Nc3cccc(C(=O)N(C)CC(F)F)c3N21 (single isomer, unassigned) [Example 73, (E)-N-(2,2-difluoroethyl)-N,11-dimethyl-3,5-dioxo-1^2,1^3-dihydro-1^1H-2,6-diaza-1(2,1)-benzo[d]imidazola-4(1,3)-benzenacycloundecaphane-1^7-carboxamide] | 5 | –
16 | CC1CCCCNC(=O)c2cccc(c2)C(=O)/N=C2\Nc3cccc(C(=O)N4CCOC[C@H]4C)c3N21 (single isomer, unassigned) [Example 75] | 11 | –
17 | CC1CCCCNC(=O)c2cccc(c2)C(=O)/N=C2\Nc3cccc(C(=O)N4CCOC[C@@H]4C)c3N21 (single isomer, unassigned) [Example 77] | 5 | –
18 | CC1CCCCNC(=O)c2cccc(c2)C(=O)/N=C2\Nc3cccc(C(=O)N4CC5(CCO5)C4)c3N21 (single isomer, unassigned) [Example 80, (E)-11-methyl-1^7-(1-oxa-6-azaspiro[3.3]heptane-6-carbonyl)-1^2,1^3-dihydro-1^1H-2,6-diaza-1(2,1)-benzo[d]imidazola-4(1,3)-benzenacycloundecaphane-3,5-dione] | 5 | –
19 | COC1CN(C(=O)c2cccc3c2N2/C(=N/C(=O)c4cccc(c4)C(=O)NCCCCC2C)N3)C1 (single isomer, unassigned) [Example 81, (E)-1^7-(3-methoxyazetidine-1-carbonyl)-11-methyl-1^2,1^3-dihydro-1^1H-2,6-diaza-1(2,1)-benzo[d]imidazola-4(1,3)-benzenacycloundecaphane-3,5-dione] | 6 | –
20 | COC1CN(C(=O)c2cccc3c2N2/C(=N/C(=O)c4cccc(c4)C(=O)NCCCCC2C)N3)C1 (single isomer, unassigned) [Example 82, (E)-1^7-(3-methoxyazetidine-1-carbonyl)-11-methyl-1^2,1^3-dihydro-1^1H-2,6-diaza-1(2,1)-benzo[d]imidazola-4(1,3)-benzenacycloundecaphane-3,5-dione] | 7 | –
21 | CC1CCCCNC(=O)c2cccc(c2)C(=O)/N=C2\Nc3cccc(C(=O)N4CC[C@H](F)C4)c3N21 (single isomer, unassigned) [Example 88] | 9 | –
22 | CC1CCCCNC(=O)c2cccc(c2)C(=O)Nc2nc3cccc(-c4nccn4C(F)F)c3n21 (single isomer, unassigned) [Example 91, (E)-1^7-(1-(difluoromethyl)-1H-imidazol-2-yl)-11-methyl-1^2,1^3-dihydro-1^1H-2,6-diaza-1(2,1)-benzo[d]imidazola-4(1,3)-benzenacycloundecaphane-3,5-dione] | 5 | 19
23 | CC1CCCCNC(=O)c2cccc(c2)C(=O)/N=C2\Nc3cccc(C(=O)N4CC[C@@H](F)C4)c3N21 (single isomer, unassigned) [Example 92] | 6 | –
24 | CC1CCCCNC(=O)c2cccc(c2)C(=O)/N=C2\Nc3cccc(C(=O)N4CC[C@@H](F)C4)c3N21 (single isomer, unassigned) [Example 93] | 6 | –
